How the values were obtained:
human TLR7 = human TLR7 (Homo sapiens (Human), UniProt Q9NYK1); test: TLR7 inhibition reporter assay (HEK-Blue cells, SEAP reporter, gardiquimod stimulation); format: cell-based; settings: HEK-Blue cells overexpressing human TLR7, gardiquimod 7.5 μM
TLR7 = test: In vivo mouse TLR7 PD model (gardiquimod challenge, plasma IL-6); design: species or system C57BL/6 mice; settings: oral
Description: In Vivo Mouse TLR7 and TLR9 PD Model:
(§1) Adult male C57BL/6 mice were used for the experiments. Mice (7 to 10 per group) were randomized into different treatment groups based on body weight. Mice from the respective treatment groups were administered orally with vehicle or test compound. Thirty min after the oral administration of vehicle or test compound, mice were challenged with intraperitoneal injection of gardiquimod for TLR7 PD model and CpG-ODN for TLR9 PD model. Ninety minutes after gardiquimod injection and 120 minutes after CpG-ODN injection, mice were bled under isoflurane anaesthesia and plasma IL-6 level was estimated by using commercially available ELISA kit (BD Biosciences). At the end of experiment, mean cytokine data was plotted and one way ANOVA with Dunnett's test was performed to calculate the significance of test compound treated group vs. vehicle control group. Percent inhibition of cytokine induction was calculated for test compound treated group vs vehicle control group.

human TLR8 = human TLR8 (Homo sapiens (Human), UniProt Q9NR97); test: TLR8 inhibition reporter assay (HEK-Blue cells, SEAP reporter, R848 stimulation); settings: read-out: TLR8 IC50, HEK-Blue cells overexpressing human TLR8, R848 15.9 μM;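 also: compounds tested from 0.05 nM to 50 µM, 22 h at 37 °C, SEAP measured with HEK-Blue Detection, inhibition relative to agonist plus DMSO versus a known inhibitor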
human TLR9 = human TLR9 (Homo sapiens (Human), UniProt Q9NR96); test: TLR9 inhibition reporter assay (HEK-Blue cells, SEAP reporter, ODN2006 stimulation); settings: read-out: TLR9 IC50, HEK-Blue cells overexpressing human TLR9, ODN2006 5 nM;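 also: compounds tested over 0.05 nM to 50 µM, 22 h incubation, inhibition taken as SEAP signal drop from agonist plus DMSO wells toward a known inhibitor control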
TLR9 = test: In vivo mouse TLR9 PD model (CpG-ODN challenge, plasma IL-6); design: species or system C57BL/6 mice; settings: oral
Description: as §1, with “In Vivo Mouse TLR7 and TLR9 PD Model: Adult” for “Adult”

MRL/lpr mice = test: MRL/lpr model of systemic lupus erythematosus (proteinuria, urinary NGAL, anti-dsDNA Ab titer, lymphadenopathy); format: in vivo, mouse; settings: oral once daily
Description: MRL/lpr Model of Systemic Lupus Erythematosus (SLE) Male MRL/lpr mice of 12-14 weeks age were screened and randomized based on the titers of anti-dsDNA antibodies and urinary NGAL (Neutrophil Gelatinase Associated Lipocalin). Mice were treated orally, once daily for 8 weeks with vehicle or test compound. The effect of test compound on disease severity was assessed by measuring end points including proteinuria, urinary-NGAL, anti-dsDNA Ab titer, and lymphadenopathy. These end points were assessed before the start of treatment and after 4 and 8 weeks of treatment. At the end of experiment, all mice were euthanized by CO2 asphyxiation and kidney samples were subjected for histology. At the end of experiment, one way ANOVA with Dunnett's test was performed to calculate the significance of test compound treated group vs. vehicle control group. Percent reduction in disease severity was calculated for each parameter, for test compound treated group vs vehicle control group.

Sequence of human TLR7 (Q9NYK1 27-1049): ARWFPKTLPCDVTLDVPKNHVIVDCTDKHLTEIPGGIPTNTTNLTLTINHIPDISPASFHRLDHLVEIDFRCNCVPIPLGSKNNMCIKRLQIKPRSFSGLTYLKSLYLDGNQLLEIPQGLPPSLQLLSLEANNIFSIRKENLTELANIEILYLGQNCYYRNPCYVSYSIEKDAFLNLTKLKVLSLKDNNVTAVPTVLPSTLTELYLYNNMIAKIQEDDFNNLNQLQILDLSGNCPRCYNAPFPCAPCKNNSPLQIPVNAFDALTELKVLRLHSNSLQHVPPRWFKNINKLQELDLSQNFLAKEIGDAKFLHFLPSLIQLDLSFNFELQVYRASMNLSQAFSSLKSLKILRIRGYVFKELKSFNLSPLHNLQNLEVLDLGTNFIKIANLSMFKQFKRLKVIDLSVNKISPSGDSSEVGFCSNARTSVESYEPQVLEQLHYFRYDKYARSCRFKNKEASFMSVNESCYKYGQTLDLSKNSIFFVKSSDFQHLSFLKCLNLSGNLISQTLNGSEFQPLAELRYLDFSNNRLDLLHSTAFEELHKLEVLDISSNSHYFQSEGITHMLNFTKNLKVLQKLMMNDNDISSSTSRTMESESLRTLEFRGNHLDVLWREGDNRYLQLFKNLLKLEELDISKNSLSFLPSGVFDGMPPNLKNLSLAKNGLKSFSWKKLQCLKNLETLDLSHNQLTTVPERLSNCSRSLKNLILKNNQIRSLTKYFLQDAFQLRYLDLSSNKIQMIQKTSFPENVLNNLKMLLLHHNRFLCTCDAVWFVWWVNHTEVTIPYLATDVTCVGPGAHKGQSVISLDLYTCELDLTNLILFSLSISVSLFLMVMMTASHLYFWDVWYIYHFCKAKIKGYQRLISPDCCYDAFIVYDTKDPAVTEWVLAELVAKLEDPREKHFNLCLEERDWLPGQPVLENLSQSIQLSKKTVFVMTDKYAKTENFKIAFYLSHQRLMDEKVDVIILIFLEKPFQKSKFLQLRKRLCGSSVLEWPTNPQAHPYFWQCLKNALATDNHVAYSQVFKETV
Sequence of human TLR8 (Q9NR97 27-1041): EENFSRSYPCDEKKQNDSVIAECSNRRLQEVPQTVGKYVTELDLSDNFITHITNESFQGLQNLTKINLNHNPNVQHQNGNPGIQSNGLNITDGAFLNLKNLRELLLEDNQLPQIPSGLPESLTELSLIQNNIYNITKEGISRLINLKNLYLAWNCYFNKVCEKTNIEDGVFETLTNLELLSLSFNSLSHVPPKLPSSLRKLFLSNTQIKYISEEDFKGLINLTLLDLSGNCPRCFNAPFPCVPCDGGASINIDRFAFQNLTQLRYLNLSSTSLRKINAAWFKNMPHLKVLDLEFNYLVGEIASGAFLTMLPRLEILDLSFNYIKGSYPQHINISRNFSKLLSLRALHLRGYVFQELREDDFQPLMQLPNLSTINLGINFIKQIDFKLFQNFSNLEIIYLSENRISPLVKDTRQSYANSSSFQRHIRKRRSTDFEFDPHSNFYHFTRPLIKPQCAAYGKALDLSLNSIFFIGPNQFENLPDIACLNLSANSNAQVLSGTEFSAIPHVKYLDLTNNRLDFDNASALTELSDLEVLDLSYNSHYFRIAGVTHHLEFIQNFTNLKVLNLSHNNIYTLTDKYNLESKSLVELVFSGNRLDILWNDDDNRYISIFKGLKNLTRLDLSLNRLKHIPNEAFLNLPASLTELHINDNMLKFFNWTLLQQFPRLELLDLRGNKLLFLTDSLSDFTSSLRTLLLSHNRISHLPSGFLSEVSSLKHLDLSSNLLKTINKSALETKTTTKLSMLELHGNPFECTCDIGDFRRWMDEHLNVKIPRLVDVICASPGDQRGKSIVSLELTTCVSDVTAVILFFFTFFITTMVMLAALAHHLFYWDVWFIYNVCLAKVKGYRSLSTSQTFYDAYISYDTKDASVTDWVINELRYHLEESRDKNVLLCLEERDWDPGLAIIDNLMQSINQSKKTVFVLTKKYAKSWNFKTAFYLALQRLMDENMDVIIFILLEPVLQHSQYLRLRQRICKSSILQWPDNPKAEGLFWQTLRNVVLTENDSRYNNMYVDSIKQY
Sequence of human TLR9 (Q9NR96 26-1032): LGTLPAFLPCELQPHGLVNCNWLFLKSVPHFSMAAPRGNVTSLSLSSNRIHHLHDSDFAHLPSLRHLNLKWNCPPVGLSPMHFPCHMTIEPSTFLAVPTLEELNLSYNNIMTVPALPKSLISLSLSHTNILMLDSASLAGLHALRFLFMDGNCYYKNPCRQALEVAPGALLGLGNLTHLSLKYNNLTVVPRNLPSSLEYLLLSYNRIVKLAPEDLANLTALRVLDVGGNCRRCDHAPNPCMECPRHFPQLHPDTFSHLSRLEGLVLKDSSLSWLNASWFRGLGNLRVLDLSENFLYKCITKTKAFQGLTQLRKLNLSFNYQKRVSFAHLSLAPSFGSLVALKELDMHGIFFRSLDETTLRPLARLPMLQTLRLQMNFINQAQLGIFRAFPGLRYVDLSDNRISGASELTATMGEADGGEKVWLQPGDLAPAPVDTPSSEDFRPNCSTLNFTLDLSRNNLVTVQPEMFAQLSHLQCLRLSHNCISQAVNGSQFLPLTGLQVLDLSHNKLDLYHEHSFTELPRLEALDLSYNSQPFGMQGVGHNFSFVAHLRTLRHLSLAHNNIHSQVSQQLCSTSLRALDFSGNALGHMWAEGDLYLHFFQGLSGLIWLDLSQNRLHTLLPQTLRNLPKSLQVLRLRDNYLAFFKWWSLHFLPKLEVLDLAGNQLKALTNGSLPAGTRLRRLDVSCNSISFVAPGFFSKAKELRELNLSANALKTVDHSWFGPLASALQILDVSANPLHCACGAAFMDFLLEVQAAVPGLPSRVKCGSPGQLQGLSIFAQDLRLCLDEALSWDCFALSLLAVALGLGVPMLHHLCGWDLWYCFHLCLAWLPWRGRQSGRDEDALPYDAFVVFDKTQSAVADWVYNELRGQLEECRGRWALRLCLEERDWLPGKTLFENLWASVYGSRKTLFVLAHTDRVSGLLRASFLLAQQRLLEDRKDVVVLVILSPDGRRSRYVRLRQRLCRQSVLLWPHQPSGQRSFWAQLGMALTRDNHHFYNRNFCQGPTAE

In the case of `Cc1cc(-c2[nH]c3ccc(C4CCN(CC(=O)N(C)C)CC4)cc3c2C(C)C)cc(C)n1` [Example 308, 2-(4-(2-(2,6-dimethylpyridin-4-yl)-3-isopropyl-1H-indol-5-yl)piperidin-1-yl)-N,N-dimethylacetamide], the IC50 (human TLR7) is reported as 1.5 nM, the “% inhibition of IL6” value (TLR7; 0.002 mg/kg) is reported as 30% and the “% inhibition of IL6” value (TLR7; 0.008 mg/kg) is reported as 47%. The “% inhibition of IL6” value (TLR7; 0.032 mg/kg) was 81%, the “% inhibition of IL6” value (TLR7; 0.160 mg/kg) was 98% and the IC50 (human TLR8) was 4.3 nM. It also gave an IC50 (human TLR9) of 359 nM.
For `Cc1cc(-c2[nH]c3ccc(C4CCNCC4)cc3c2C(C)C)cc(C)n1.Cl` [Example 1, 2-(2,6-dimethylpyridin-4-yl)-3-isopropyl-5-(piperidin-4-yl)-1H-indole hydrochloride], the IC50 (human TLR7) was 0.7 nM, the “% inhibition of IL6” value (TLR7; 0.03 mg/kg) was 28% and the “% inhibition of IL6” value (TLR7; 0.05 mg/kg) was 66%. The “% inhibition of IL6” value (TLR7; 0.5 mg/kg) was 98%, the “% inhibition of IL6” value (TLR9; 1 mg/kg) was 16% and the “% inhibition of IL6” value (TLR9; 3 mg/kg) was 29%. The “% inhibition of IL6” value (TLR9; 10 mg/kg) was 33%, the “% inhibition of IL6” value (TLR9; 30 mg/kg) was 38% and the “% inhibition Anti-dsDNA antibody titer” value (MRL/lpr mice; 0.1 mg/kg) was 1%. For the same compound, the “% inhibition IL-10” value (MRL/lpr mice; 0.1 mg/kg) was 24%, the “% inhibition IL-12p40” value (MRL/lpr mice; 0.1 mg/kg) was 12% and the “% inhibition Lymphadenopathy” value (MRL/lpr mice; 0.1 mg/kg) was 3%. For the same compound, the “% inhibition Proteinuria” value (MRL/lpr mice; 0.1 mg/kg) was 69%, the “% inhibition Urinary NGAL” value (MRL/lpr mice; 0.1 mg/kg) was 52% and the “% inhibition Anti-dsDNA antibody titer” value (MRL/lpr mice; 1 mg/kg) was 14%. The “% inhibition IL-10” value (MRL/lpr mice; 1 mg/kg) was 32%, the “% inhibition IL-12p40” value (MRL/lpr mice; 1 mg/kg) was 26% and the “% inhibition Lymphadenopathy” value (MRL/lpr mice; 1 mg/kg) was 31%. For the same compound, the “% inhibition Proteinuria” value (MRL/lpr mice; 1 mg/kg) was 92%, the “% inhibition Urinary NGAL” value (MRL/lpr mice; 1 mg/kg) was 69% and the “% inhibition Anti-dsDNA antibody titer” value (MRL/lpr mice; 5 mg/kg) was 20%. For the same compound, the “% inhibition IL-10” value (MRL/lpr mice; 5 mg/kg) was 39%, the “% inhibition IL-12p40” value (MRL/lpr mice; 5 mg/kg) was 30% and the “% inhibition Lymphadenopathy” value (MRL/lpr mice; 5 mg/kg) was 33%. For the same compound, the “% inhibition Proteinuria” value (MRL/lpr mice; 5 mg/kg) was 92%, the “% inhibition Urinary NGAL” value (MRL/lpr mice; 5 mg/kg) was 72% and the “% inhibition Anti-dsDNA antibody titer” value (MRL/lpr mice; 20 mg/kg) was 53%. For the same compound, the “% inhibition IL-10” value (MRL/lpr mice; 20 mg/kg) was 53%, the “% inhibition IL-12p40” value (MRL/lpr mice; 20 mg/kg) was 35% and the “% inhibition Lymphadenopathy” value (MRL/lpr mice; 20 mg/kg) was 53%. For the same compound, the “% inhibition Proteinuria” value (MRL/lpr mice; 20 mg/kg) was 93%, the “% inhibition Urinary NGAL” value (MRL/lpr mice; 20 mg/kg) was 81% and the IC50 (human TLR8) was 3.2 nM.
`CNC(=O)CN1CCC(c2ccc3[nH]c(-c4cc(C)nc(C)c4)c(C(C)C)c3c2)CC1` [Example 309, 2-(4-(2-(2,6-dimethylpyridin-4-yl)-3-isopropyl-1H-indol-5-yl)piperidin-1-yl)-N-methylacetamide] was tested, and the IC50 (human TLR7) was 2 nM, the “% inhibition of IL6” value (TLR7; 0.0005 mg/kg) was 12% and the “% inhibition of IL6” value (TLR7; 0.005 mg/kg) was 65%. The “% inhibition of IL6” value (TLR7; 0.05 mg/kg) was 89%, the “% inhibition of IL6” value (TLR7; 0.25 mg/kg) was 91% and the IC50 (human TLR8) was 5.5 nM. For the same compound, the IC50 (human TLR9) was 789 nM.
